# Measurements: a melting point compilation (Tetko et al.; mined from patent text by program, amines drawn as free bases though some values may be those of a salt)
row,Compound,melting point
1,O=C1NC(=O)C(SCCO)=C1SCCO,46 to 50 °C
2,CCOC(=O)CCCCCCCCCCNC(=O)CN(CCN(CCN(CC(=O)O)CC(=O)O)CC(=O)O)CC(=O)O,155 to 157 °C
3,CCCc1c(OCCOc2ccc(N)cc2)ccc(C(C)=O)c1O,73 to 74 °C
4,CCOC(=O)C1=C(C)NC(C)=C(C(=O)OCC)C1c1cccc(F)c1F,161 to 162 °C
5,CCCCCCCCCCC/C=C/c1ccc(C=CC(=O)O)cc1,107 °C
6,CC(C)C(C)(C)C(O)(COc1ccc(Cl)cc1)Cn1cncn1 (stereo unspecified),59 to 60 °C
7,CN1CCN(Cc2ccc(-c3ccc(-c4cn([C@H]5CN6CCC5CC6)nn4)s3)cc2)CC1,214 °C
8,Nc1nc2cccnc2c2c1ncn2Cc1cc(-c2ccc(F)cc2)no1,265 to 266 °C
9,CN1CCC(C2c3sccc3C=Cn3ncnc32)CC1 (stereo unspecified),137 °C
10,CC1(C)C2CCC1(CNC(=O)CBr)CC2,89 °C
11,O=C1NC(=O)c2c1cnc1[nH]ncc21,285 to 300 °C
12,c1cncc(-c2ccc3c(c2)OCO3)c1,92 to 92.5 °C
13,CCCCCCNc1nc2nc(N)[nH]c(=O)c2s1,> 320 °C
14,CC(O)(C(O)C(O)=Cc1ccccc1)C(O)(Br)C(O)C(O)=Cc1ccccc1 (stereo unspecified),277 to 279 °C
15,CC1NC(=O)NN=C1c1ccc(NC(=O)CO)cc1 (stereo unspecified),246 to 248 °C
16,C#CCOC(=O)C=Cc1csc(Cl)c1Cl,84 to 86 °C
17,COc1ccc(C=Cc2cc(OC)cc(OC)c2)cc1,55 to 56 °C
18,Cc1cc2c(cc1C(F)(F)F)N(C(=O)Nc1ccc(OCc3ccccn3)nc1)CC2,219 to 220 °C
19,CCCCCCCCCCCCCCCCCCOc1cc(OCc2ccccc2)cc(N(CC(=O)OC)CC(=O)OC)c1,66 to 68 °C
20,COc1cc(NC(C)CCCN)c2nccc(C)c2c1Oc1cccc(C(F)(F)F)c1 (stereo unspecified),128 to 131 °C
21,FC(F)c1cc(-c2cccc(C(F)(F)F)c2)nc2c(I)cnn12,130 °C

row,Compound,melting point
1,Cc1c(NC(=O)c2ccc(OC[C@@H]3CCCO3)cc2)ccc2c1cc(CNCC(C)(C)O)n2C,160 to 162 °C
2,N#CC(c1ccccc1)(c1ccccc1)[C@H]1CCCN(CCc2ccccc2)C1,134 to 138 °C
3,Cc1nc2nc(S(=O)(=O)Cl)nn2cc1Cl,99 to 101 °C
4,CC(C)(C)CC(C)(C)NCC(=O)N1CC2C(C1)C2Nc1ncc2cc(-c3ccccc3Cl)c(=O)n(C3CC3)c2n1 (stereo unspecified),218 to 220 °C
5,O=c1[nH]cc(C2CCCCC2)c2ccccc12,111 to 112 °C
6,Cc1nc(CS(C)(=O)=O)nc(OC(=O)NN2CC(C)OC(C)C2)c1C (stereo unspecified),103 °C
7,CC(=CC#Cc1ccccc1)C(=O)NCCCCCC(=O)NO,135 to 137 °C
8,COc1ccc(-c2nc(NC(=N)N)sc2-c2ccc(OC)cc2)cc1,121 to 130 °C
9,Cc1c(C(=O)O)cc(O)c2cc(-c3ccc4c(c3)C(C)(C)CCC4(C)C)ccc12,266 °C
10,CC1(C)CC(=O)c2ccc(OCCn3ccnc3)cc2O1,84 to 86 °C
11,COc1cc(NCCCCCCN2CCN(c3ccccn3)CC2)c2nccc(C)c2c1,78 to 81 °C
12,COc1cc(C(C)C)c2c(c1)S(=O)(=O)N(CCl)C2=O,151 to 152 °C
13,CCOC(=O)C1=C(COCc2cc(=O)[nH]c(N)n2)NC(C)=C(C(=O)OC)C1c1ccccc1Cl (stereo unspecified),185 to 187 °C
14,COc1nc(Cl)nc(N)c1C,189 °C
15,CCOC(=O)N1CCC(=C2c3ccc(Cl)cc3C=Cc3cccnc32)CC1,155 to 156 °C
16,CC(=O)c1ccc(C(=O)OC(C)(C)C)cc1,57.5 to 58.8 °C
17,O=C(O)CCCCCNC(=O)C(CS)Cc1ccccc1 (stereo unspecified),58 to 60 °C
18,Cc1nc(NC(=O)c2cnn3c(C(F)F)cc(-c4ccc(C(F)(F)F)cc4)nc23)sc1S(=O)(=O)NC(C)(C)CO,268 °C
19,N#Cc1ccccc1OCCCC(=O)O,127 to 128 °C
20,CCNC(=O)c1ccc(F)c(F)c1,94.1 to 96.2 °C
21,O=C(O)Cc1ccc(C2=CCCCC2)cc1,118 to 120 °C

row,Compound,melting point
1,O=C(NC(=O)N1CCC(Cc2ccc(F)cc2F)CC1)c1ccc(O)cc1,168 °C
2,COc1cc(C(C)=O)ccc1OCCCCN1CCC(c2noc3ccccc23)CC1,99 to 101 °C
3,COC(=O)Cc1c(OC)ccc2c1Oc1c(ccc(OC)c1C=NO)C2(C)C,234 to 236 °C
4,COc1ccc(C(=O)NCCCSc2ccncc2)cc1,121 to 122 °C
5,N#Cc1ccc(Sc2cc(Cl)ccc2Cl)c(S(=O)(=O)N2CCNCC2)c1,156 to 162 °C
6,CCOC(=O)C(NC(=O)CNC(N)=O)C(=O)OCC,140 to 142 °C
7,Cc1cc(/C=C/C(=O)N(C)O)c(C)n1-c1ccc(C(=O)N(C)C)cc1,172 to 174 °C
8,CCOC(=O)c1cn(C2CC2)c2c(F)c(Br)c(F)c(F)c2c1=O,187 to 189 °C
9,Clc1ccc2c(N3CCCC4CCCC(N5CCCC5)C43)ccnc2c1 (stereo unspecified),136 to 138 °C
10,CC(C)(O)CCCCc1ccc(CCc2ccc(O)c(O)c2)cc1,124 to 126 °C
11,O=C(N1CC2CC(C1)c1ccccc12)C(F)(F)F,67 to 68 °C
12,CC(C)n1cc(C(=O)O)c2ccc(Cl)cc21,206 to 208 °C
13,COC(=O)c1ccc(CC(=O)c2ccc3c(c2)C(C)(C)CCC3(C)C)cc1,103 to 104 °C
14,Cc1cc(Sc2ccc([N+](=O)[O-])cc2)cc(Br)n1,124 to 126 °C
15,CCCc1nc(C(C)(O)CC)c(C#N)[nH]1 (stereo unspecified),157 to 159 °C
16,CCOC(=O)C(=CNCc1csnn1)C(=O)c1cc(F)c(F)cc1F,176 to 178 °C
17,C[C@H]1[C@H](NC(=O)OC(C)(C)C)C(=O)N1OCC(=O)OCc1ccc([N+](=O)[O-])cc1,71 to 75 °C
18,CCc1ccccc1NC(=O)C(C#N)=C(C)N(C)C,79 to 81.5 °C
19,Nc1cc2c3c(cccc3c1Cl)C(=O)N(O)C2=O,271 to 275 °C
20,CC1Cc2cc3c(cc2C(c2ccc([N+](=O)[O-])cc2)=NN1c1ncon1)OCO3 (stereo unspecified),190 to 196 °C
21,CC1(C)C(C=C(Br)Br)C1C(=O)OCc1cccc(Oc2ccccc2)c1 (stereo unspecified),93 °C

# The next lines start with the values.
row,melting point,Compound
1,200 °C,CCc1oc(-c2ccc(S(C)(=O)=O)cc2)c(Oc2ccc(F)cc2F)c(=O)c1C
2,258 to 260 °C,O=c1nc(-c2cccc(CC(O)=S)n2)sc2ccccc12
3,244 to 246 °C,CCCc1nc2c(N)nc3ccc(-c4cccc(NS(C)(=O)=O)c4)cc3c2s1
4,120 to 123 °C,COc1ccccc1N1CCN(CCCCCS(=O)(=O)c2cccc3c(=O)c(C)c(-c4ccccc4)oc23)CC1
5,248 °C,COc1ccccc1[C@@]1(O)[C@H](O)CC(c2ccccc2)(c2ccccc2)[C@@H]2CN(C(=O)Cc3c[nH]c4ccc(F)cc34)C[C@@H]21 (racemic)
6,117 to 119 °C,CN(C)CC(O)c1cc(-c2ccccc2)on1 (stereo unspecified)
7,265 °C,Cc1cc2cc(CN3CCC(C(N)=O)CC3)cnc2cc1NC(=O)c1ccc(-c2ccc(F)cc2)cc1
8,154 to 167 °C,CC(=O)NCC1(c2ccccc2)CCN(CCC(c2ccccc2)(c2ccccc2)c2ccccc2)CC1
9,112 to 114 °C,O=S(=O)(c1ccccc1)c1ccc2c(c1)O[C@H](CO)CO2
10,106 to 108 °C,O=C(NC1CCc2ccccc2C(CCCc2ccccc2)C1=O)OCc1ccccc1 (stereo unspecified)
11,117 to 119 °C,O=C(O)c1ccc(NCCCCCCCCCCCOc2ccccc2)cc1
12,206 to 208 °C,CC(C)(C)Sc1c(CC(C)(C)C(=O)O)n(Cc2ccc(Cl)cc2)c2ccc(OCc3cccnc3)cc12
13,155 to 160 °C,CC1(O)CC(=O)OC(CCc2ccc(OCc3ccccc3)cc2)C1Br (stereo unspecified)
14,146 to 147 °C,OC(c1ccccc1)c1nc(-c2ccncc2)cs1 (stereo unspecified)
15,191 to 193 °C,Cc1cc(O)ccc1-c1ccc2cc(O)ccc2c1
16,169 to 171 °C,CCCc1nc2c(N)nc(C)c(C)c2n1CCCS(=O)(=O)c1ccc(C(=O)OCC)cc1
17,212 to 215 °C,Cc1cccc(Cl)c1C(=O)N[C@@H](Cc1ccc(NC(=O)c2c(Cl)cccc2Cl)cc1)C(=O)O
18,62 to 63.5 °C,c1ccc(C(c2ccccc2)N2CCc3ccccc32)cc1
19,140 to 142 °C,CCOC(Cc1ccc(OCCn2c(CC)nc(-c3ccccc3)cc2=O)cc1)C(=O)O (stereo unspecified)

row,melting point,Compound
1,162 to 166 °C,CN(C)N=Nc1cc(-c2ccccc2)sc1C(=O)O
2,77 to 79 °C,COC(=O)c1cc(Cl)cnc1NCc1ccccc1
3,49 to 51 °C,Cc1ccc(C(=O)Cl)cc1OCc1ccccc1
4,300 to 302 °C,CCOc1ccccc1C=C1CCc2c1oc1ccc(C(=O)O)cc1c2=O
5,83.5 to 84 °C,O=C(c1ccc(Cl)cc1)c1cccc(Br)n1
6,96 to 97 °C,COC(=O)c1cncc(OCc2cccc(OCc3nc(-c4ccccc4)oc3C)c2)c1
7,149 to 151 °C,COc1ccc2c(c1OC)C(=O)c1c-2c(Cl)nc2ccc(Cl)cc12
8,255 to 257 °C,Nc1sc2c(c1C(=O)c1cccc3ccccc13)CCC2
9,226 °C,CS(=O)(=O)c1ccc(/C(=C2\N=C(c3ccccc3)OC2=O)c2ccc(Cl)cc2)cc1
10,189 to 190 °C,Cc1ccc(-c2ccc3c(c2)C=C(C(=O)Nc2ccc(Cc4ccccn4)cc2)CCO3)cc1
11,258 to 260 °C,O=C1CCC(N2Cc3c(OCC4Cc5ccccc5O4)cccc3C2=O)C(=O)N1 (stereo unspecified)
12,104 to 105 °C,CS(=O)c1ccc(-c2cc(C#N)nn2-c2ccc(F)cc2)cc1 (stereo unspecified)
13,188 to 190 °C,O=C1CC2(CC(=O)O1)c1ccccc1Oc1ccccc12
14,187 °C,COc1cccc(C2(O)c3cccc(O)c3C(=O)c3c(O)cccc32)c1
15,125 to 127 °C,Cc1ccc(S(=O)(=O)OC2CCc3[nH]c4ccc(C)cc4c3C2)cc1 (stereo unspecified)
16,215 to 216 °C,Fc1cccc(F)c1-c1ncc(-c2ccc(-c3ccc(OC(F)(F)F)cc3)cc2)cn1
17,214 °C,Cn1cncc1C(O)(c1ccc(Cl)cc1)c1cc2c3c(c1)c(-c1cccc(Cl)c1)cc(=O)n3CC2 (stereo unspecified)
18,164 to 175 °C,CC(=NNC(=O)c1ccc2n1Cc1ccccc1N(C(=O)c1ccc(C3CCCCC3)cc1)C2)N(C)C
19,122 to 123 °C,CCOC(=O)c1nn(-c2ccc(Cl)cc2)c2c1CCC2
